In paper PMC6327044, “A chemical biology screen identifies a vulnerability of neuroendocrine cancer cells to SQLE inhibition” (Nature Communications, 2019) one finds GI50 data, which are given here for one molecule.

The structures appear in SMILES notation.

Holding throughout (test): cells
Common to all, as to parameters: species or system panel of 482 human cancer cell lines; ATPLite luminescence growth inhibition after treatment, nine-point dilution curve, 482 cancer cell lines, 384-well
What all share (conditions): 72 h, recommended growth medium
For orientation: In ATP-based viability assays light output follows the ATP content of the culture.

For assay [1], the system named is A427_LUNG. In outline: (§1)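 Growth inhibition was measured across a panel of 482 cancer cell lines. Cells were plated at 500 cells per well in recommended growth media in black, tissue culture treated 384-well plates, centrifuged to equilibrate, and incubated 24 h before dosing. Compounds were tested as nine-point dilution curves for 72 h, with viability read by ATPLite luminescence relative to DMSO-treated controls.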

For assay [2], the system named is BEN_LUNG. In outline: as §1
Assay [3] deals with CHP126_AUTONOMIC_GANGLIA. In outline: as §1
The subject of assay [4] is GSS_STOMACH. A digest of the protocol: as §1
The subject of assay [5] is HCC1588_LUNG. A digest of the protocol:
as §1

For assay [6], the system named is HT115_LARGE_INTESTINE
In outline: as §1

In assay [7] the test system is KURAMOCHI_OVARY. A digest of the protocol:
as §1

The test system of assay [8] is MINO_HAEMATOPOIETIC_AND_LYMPHOID_TISSUE. A digest of the protocol: as §1
Assay [9] relates to NCIH1048_LUNG. In outline: as §1
The test system of assay [10] is NCIH1568_LUNG. A digest of the protocol: as §1
The test system of assay [11] is NCIH1836_LUNG. In outline:
as §1

Assay [12] concerns NCIH1944_LUNG. In outline: as §1
In assay [13] the test system is NCIH2106_LUNG. A digest of the protocol: as §1
Assay [14] deals with NCIH2171_LUNG. In outline: as §1
Assay [15] concerns SNU308_BILIARY_TRACT. A digest of the protocol:
as §1

The test system of assay [16] is SNU620_STOMACH. In outline: as §1
In assay [17] the test system is WSUNHL_HAEMATOPOIETIC_AND_LYMPHOID_TISSUE. A digest of the protocol:
as §1

The term GI50 denotes the concentration giving 50% growth inhibition. A higher GI50 goes with lower sensitivity of the cells. Take `CCN(C/C=C/C#CC(C)(C)C)Cc1cccc(OCc2cc(-c3ccsc3)cs2)c1` [NB-598]: the GI50 in assay [1] amounted to 5.55 nM; in assay [2] it was 21400 nM; in assay [3], 38.2 nM; in assay [4] it was 12300 nM; in assay [5], 5160 nM; in [6], 2720 nM. Moreover, the GI50 was 52000 nM in assay [7]; 33400 nM in assay [8]; 9060 nM in assay [9]; 7980 nM in assay [10]; 14.7 nM in assay [11]; 27.1 nM in assay [12]. The concentration for 50% growth inhibition (GI50) was determined as 12.1 nM in [13]; 2270 nM in assay [14]; 2920 nM in [15]; 1780 nM in assay [16]; 21.8 nM in assay [17].
